# Measurements published in article PMC6407917, “Identification of GSK3186899/DDD853651 as a Preclinical Development Candidate for the Treatment of Visceral Leishmaniasis” (Journal of Medicinal Chemistry, 2018).
# Assays:
# Assay in all cases: biochemical
# Parameters in all cases: species or system HEK293/K-562/placenta mixed human extract; Kinobeads chemoproteomic competition binding, quantified by TMT LC-MS/MS, dose response up to 20 uM
# [1] = molecular target: CDK10 (Homo sapiens, UniProt Q15131)
# [2] = molecular target: MKNK2 (Homo sapiens, UniProt Q9HBH9)
# [3] = molecular target: TYK2 (Homo sapiens, UniProt P29597)
# [4] = molecular target: CDC42BPB (Homo sapiens, UniProt Q9Y5S2)
# Chain of CDC42BPB (Q9Y5S2 whole entry): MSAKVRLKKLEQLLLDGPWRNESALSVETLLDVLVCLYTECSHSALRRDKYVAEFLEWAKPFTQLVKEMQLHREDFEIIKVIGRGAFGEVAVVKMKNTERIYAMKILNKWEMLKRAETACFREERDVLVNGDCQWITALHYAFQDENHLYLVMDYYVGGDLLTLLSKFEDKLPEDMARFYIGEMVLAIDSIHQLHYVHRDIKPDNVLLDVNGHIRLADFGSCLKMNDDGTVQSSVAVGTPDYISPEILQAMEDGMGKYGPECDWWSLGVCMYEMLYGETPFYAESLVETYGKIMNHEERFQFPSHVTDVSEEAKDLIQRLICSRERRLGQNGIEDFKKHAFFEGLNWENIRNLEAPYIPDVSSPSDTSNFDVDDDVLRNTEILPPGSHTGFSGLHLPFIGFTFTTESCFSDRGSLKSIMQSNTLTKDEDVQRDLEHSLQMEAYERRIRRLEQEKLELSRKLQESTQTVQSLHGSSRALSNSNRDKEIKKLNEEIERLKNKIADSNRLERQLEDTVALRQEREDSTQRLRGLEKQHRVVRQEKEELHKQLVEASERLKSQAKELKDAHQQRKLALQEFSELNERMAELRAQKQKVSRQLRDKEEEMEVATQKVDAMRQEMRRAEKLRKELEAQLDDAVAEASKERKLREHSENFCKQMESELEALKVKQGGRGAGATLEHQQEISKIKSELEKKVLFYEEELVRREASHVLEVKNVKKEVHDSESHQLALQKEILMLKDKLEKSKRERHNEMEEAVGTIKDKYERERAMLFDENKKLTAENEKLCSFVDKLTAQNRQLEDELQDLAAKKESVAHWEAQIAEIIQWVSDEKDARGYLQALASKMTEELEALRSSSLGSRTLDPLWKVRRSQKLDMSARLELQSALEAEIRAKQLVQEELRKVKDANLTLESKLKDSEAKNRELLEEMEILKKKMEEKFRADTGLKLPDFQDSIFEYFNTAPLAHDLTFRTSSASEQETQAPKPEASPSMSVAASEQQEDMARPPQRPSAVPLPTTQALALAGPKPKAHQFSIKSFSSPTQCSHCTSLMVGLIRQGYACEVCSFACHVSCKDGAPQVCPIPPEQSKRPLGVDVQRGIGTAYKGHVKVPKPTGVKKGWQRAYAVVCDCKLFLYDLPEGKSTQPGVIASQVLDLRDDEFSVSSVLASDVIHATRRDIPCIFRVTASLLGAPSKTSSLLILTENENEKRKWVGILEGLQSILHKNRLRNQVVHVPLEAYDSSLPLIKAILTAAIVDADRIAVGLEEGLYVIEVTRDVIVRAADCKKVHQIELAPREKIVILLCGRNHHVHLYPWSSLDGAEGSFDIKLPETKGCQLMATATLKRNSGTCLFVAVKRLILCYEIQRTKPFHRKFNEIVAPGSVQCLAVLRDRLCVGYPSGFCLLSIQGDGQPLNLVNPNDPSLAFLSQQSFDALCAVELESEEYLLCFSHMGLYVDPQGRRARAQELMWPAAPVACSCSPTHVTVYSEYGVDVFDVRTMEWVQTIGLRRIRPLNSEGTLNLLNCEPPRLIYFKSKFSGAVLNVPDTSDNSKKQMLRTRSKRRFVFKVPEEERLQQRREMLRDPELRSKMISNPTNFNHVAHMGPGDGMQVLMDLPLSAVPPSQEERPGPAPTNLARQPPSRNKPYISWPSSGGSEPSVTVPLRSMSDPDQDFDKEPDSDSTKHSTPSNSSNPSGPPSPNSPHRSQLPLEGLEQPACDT
# [5] = molecular target: CSNK1E (Homo sapiens, UniProt P49674)
# Chain of CSNK1E (P49674 whole entry): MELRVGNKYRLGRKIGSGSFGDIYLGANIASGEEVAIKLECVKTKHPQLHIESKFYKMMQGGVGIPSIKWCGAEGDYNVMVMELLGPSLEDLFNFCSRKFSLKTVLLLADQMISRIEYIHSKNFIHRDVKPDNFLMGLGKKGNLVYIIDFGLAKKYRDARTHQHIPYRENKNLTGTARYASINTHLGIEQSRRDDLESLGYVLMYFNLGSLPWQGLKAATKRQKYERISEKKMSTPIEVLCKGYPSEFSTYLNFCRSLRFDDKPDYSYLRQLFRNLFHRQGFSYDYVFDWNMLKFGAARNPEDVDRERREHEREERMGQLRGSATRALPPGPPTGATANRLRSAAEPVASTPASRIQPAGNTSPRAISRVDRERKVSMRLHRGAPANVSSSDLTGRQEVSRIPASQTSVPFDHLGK
# [6] = molecular target: DDR1 (Homo sapiens, UniProt Q08345)
# [7] = molecular target: SIK2 (Homo sapiens, UniProt Q9H0K1)
# [8] = molecular target: MAP3K3 (Homo sapiens, UniProt Q99759)
# [9] = molecular target: BMP2K (Homo sapiens, UniProt Q9NSY1)
# Chain of BMP2K (Q9NSY1 whole entry): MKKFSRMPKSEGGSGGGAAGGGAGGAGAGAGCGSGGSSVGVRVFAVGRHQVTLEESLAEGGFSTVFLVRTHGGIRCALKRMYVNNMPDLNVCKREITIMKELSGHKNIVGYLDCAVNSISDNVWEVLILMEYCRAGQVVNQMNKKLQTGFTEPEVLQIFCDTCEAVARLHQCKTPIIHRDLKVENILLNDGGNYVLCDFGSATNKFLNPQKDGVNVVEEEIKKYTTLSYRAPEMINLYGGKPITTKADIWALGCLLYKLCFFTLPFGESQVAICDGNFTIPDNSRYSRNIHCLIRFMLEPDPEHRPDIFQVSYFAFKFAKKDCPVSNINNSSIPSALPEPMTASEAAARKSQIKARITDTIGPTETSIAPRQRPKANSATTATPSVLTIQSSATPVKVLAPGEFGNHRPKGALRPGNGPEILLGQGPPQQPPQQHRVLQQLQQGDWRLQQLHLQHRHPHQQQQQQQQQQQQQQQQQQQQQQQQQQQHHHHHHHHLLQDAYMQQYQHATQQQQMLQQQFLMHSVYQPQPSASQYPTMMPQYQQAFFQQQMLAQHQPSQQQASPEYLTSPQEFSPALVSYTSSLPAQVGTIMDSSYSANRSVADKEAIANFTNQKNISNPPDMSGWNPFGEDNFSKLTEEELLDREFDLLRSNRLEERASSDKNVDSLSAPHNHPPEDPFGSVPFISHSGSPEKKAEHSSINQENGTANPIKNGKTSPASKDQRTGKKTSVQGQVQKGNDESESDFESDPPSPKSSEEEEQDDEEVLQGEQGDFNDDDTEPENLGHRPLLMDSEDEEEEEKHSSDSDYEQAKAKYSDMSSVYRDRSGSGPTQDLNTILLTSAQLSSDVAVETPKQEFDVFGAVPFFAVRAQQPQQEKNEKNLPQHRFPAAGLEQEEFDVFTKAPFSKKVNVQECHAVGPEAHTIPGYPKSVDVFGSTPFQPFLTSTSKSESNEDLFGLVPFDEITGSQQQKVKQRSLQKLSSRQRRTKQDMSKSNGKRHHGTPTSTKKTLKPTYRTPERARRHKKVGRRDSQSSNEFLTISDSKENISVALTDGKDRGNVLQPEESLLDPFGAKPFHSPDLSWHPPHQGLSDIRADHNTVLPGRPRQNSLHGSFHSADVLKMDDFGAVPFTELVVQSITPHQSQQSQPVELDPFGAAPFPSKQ
# [10] = molecular target: STK17A (Homo sapiens, UniProt Q9UEE5)
# [11] = molecular target: RIPK2 (Homo sapiens, UniProt O43353)
# [12] = molecular target: SERPINB2 (Homo sapiens, UniProt P05120)
# Chain of SERPINB2 (P05120 whole entry): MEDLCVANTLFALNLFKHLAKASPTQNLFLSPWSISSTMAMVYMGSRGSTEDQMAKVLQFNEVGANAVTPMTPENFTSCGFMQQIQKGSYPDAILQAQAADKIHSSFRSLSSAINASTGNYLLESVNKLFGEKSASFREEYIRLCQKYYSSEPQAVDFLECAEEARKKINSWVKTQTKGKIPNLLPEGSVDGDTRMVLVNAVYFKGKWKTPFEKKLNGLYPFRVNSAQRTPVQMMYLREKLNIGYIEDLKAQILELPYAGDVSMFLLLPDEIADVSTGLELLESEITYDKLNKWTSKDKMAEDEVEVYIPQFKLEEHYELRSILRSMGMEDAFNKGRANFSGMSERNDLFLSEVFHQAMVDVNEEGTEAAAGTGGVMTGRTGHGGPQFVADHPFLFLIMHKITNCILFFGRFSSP
# [13] = molecular target: STK35 (Homo sapiens, UniProt Q8TDR2)
# [14] = molecular target: SYK (Homo sapiens, UniProt P43405)
# [15] = molecular target: RPS6KA6 (Homo sapiens, UniProt Q9UK32)
# [16] = molecular target: TNIK (Homo sapiens, UniProt Q9UKE5)
# [17] = molecular target: PRKAG2 (Homo sapiens, UniProt Q9UGJ0)
# Chain of PRKAG2 (Q9UGJ0 whole entry): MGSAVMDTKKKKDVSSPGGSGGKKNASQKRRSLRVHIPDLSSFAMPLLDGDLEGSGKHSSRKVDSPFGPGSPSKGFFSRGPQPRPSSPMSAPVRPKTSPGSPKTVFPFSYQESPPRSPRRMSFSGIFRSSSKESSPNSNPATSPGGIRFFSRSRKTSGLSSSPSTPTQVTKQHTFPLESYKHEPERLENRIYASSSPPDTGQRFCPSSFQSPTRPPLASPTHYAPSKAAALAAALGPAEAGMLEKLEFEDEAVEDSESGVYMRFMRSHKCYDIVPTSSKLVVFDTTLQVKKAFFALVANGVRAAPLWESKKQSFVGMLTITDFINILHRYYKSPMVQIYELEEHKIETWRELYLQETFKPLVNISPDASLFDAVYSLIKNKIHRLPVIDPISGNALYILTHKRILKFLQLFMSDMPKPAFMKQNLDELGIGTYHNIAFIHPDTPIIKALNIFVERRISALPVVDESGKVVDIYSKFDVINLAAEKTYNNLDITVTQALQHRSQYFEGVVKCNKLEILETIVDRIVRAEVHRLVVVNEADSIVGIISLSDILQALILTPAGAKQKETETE
# [18] = molecular target: WEE1 (Homo sapiens, UniProt P30291)
# [19] = molecular target: MAP3K5 (Homo sapiens, UniProt Q99683)
# [20] = molecular target: ADK (Homo sapiens, UniProt P55263)
# [21] = molecular target: PRKG1 (Homo sapiens, UniProt Q13976)
# Chain of PRKG1 (Q13976 whole entry): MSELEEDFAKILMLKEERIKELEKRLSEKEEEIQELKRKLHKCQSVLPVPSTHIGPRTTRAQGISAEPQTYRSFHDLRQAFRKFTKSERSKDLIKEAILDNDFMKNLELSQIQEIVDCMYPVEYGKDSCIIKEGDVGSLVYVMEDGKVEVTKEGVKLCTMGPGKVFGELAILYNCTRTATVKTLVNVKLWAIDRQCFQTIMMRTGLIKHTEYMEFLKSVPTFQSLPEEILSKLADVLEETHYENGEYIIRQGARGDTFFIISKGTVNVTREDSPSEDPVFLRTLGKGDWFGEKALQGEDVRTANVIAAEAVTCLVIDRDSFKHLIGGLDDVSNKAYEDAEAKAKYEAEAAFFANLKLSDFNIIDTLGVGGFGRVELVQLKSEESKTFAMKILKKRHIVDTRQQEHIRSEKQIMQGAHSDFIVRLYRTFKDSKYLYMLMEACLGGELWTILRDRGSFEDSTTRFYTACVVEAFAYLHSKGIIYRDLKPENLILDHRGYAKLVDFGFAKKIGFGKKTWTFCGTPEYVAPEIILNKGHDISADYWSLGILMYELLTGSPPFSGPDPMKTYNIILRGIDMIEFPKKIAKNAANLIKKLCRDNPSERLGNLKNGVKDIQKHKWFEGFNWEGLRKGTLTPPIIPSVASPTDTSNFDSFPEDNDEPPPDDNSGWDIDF
smiles,measurement,setting,value
"COc1ccccc1-c1n[nH]c2nc(N[C@H]3CC[C@H](NS(=O)(=O)CCC(F)(F)F)CC3)nc(OC)c12 [compound 31, 3,3,3-Trifluoro-N-(trans-4-((4-methoxy-3-(2-methoxyphenyl)-1H-pyrazolo[3,4-d]pyrimidin-6-yl)amino)cyclohexyl)propane-1-sulfonamide]",IC50,[1],2.6 µM
same,IC50,[2],≥ 20 µM
same,IC50,[3],≥ 20 µM
same,IC50,[4],≥ 20 µM
same,IC50,[5],7.7 µM
same,IC50,[6],≥ 20 µM
same,IC50,[7],≥ 20 µM
same,IC50,[8],≥ 20 µM
same,IC50,[9],≥ 20 µM
same,IC50,[10],≥ 20 µM
same,IC50,[11],≥ 20 µM
same,IC50,[12],≥ 20 µM
same,IC50,[13],≥ 20 µM
same,IC50,[14],≥ 20 µM
same,IC50,[15],≥ 20 µM
same,IC50,[16],≥ 20 µM
same,IC50,[17],≥ 20 µM
same,IC50,[18],≥ 20 µM
same,IC50,[19],≥ 20 µM
same,IC50,[20],≥ 20 µM
same,IC50,[21],≥ 20 µM
